Measurements published in patent publication US6784153B1, “Methods of homing molecules to lung using membrane dipeptidase” (The Burnham Institute, priority 1998, dated 2004).
“Also recorded” adds a separate entry of the source.

What was measured:
kidney cells = assay: phage binding assay on kidney primary cells; parameters: species or system mice; conditions: t test, p<0.02
Experimental: Phage binding to primary cells was performed as follows. Briefly, Balb/c mice (Harlan Sprague Dawley) were anesthetized with 0.017 ml/g of Avertin as described in Gardner et al., Lab. Animal Sci. 45:199-204 (1995), which is incorporated herein by reference. Under deep anesthesia, mice were perfused through the heart with 10 ml Dulbecco's modified Eagle's medium (DMEM; Irvine Scientific; Santa Ana, Calif.). The lungs, kidneys and brain were then collected, minced, placed in 2 ml of DMEM containing 0.5% BSA (Intergen; Purchase, N.Y.) and 0.5 μg/ml collagenase V (SIGMA) and incubated at 37° C. for 25 minutes. Following collagenase treatment, the tissue was forced through a […] pore cell strainer (Becton Dickinson; Franklin Lake, N.J.). The filtered cells were washed once with 10 ml DMEM supplemented with 10% serum. […] To ensure an equal input of the different phage to be tested, phage were titered several times using K91Kan bacteria (Smith and Scott, supra, 1993).
For the binding reaction, 10^9 transducing units (TU) of phage were incubated with 5×10^6 cells in 1 ml DMEM supplemented with 10% serum. The binding was performed at 4° C. for 2 hours with gentle agitation. […] Plates were incubated at 37° C. overnight before the colonies were counted (transducing units, TU).

[1] = target: T1, 55 kDa lung vascular surface protein (Mus musculus, UniProt P31428); assay: peptide affinity chromatography of in vivo biotinylated lung extract; format: binding; conditions: elution with GFE-1 peptide
T1 construct: from tissue; host or cells: Balb/c mouse lung, in vivo biotinylated, octylglucoside extract
T1 sequence (P31428 17-384): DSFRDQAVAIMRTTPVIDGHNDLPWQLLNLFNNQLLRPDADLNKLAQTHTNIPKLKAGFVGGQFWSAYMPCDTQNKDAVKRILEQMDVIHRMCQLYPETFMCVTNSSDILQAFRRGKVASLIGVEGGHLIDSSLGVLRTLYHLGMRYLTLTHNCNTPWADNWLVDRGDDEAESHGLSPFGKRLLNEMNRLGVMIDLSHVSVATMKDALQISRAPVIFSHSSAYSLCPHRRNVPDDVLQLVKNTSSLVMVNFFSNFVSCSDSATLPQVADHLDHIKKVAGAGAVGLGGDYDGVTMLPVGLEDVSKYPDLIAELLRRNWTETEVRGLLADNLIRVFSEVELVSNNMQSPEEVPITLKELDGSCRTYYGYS
Experimental: In vivo biotinylation of endothelial cell surface proteins was performed as previously described in De La Fuente et al., Am. J. Physiol. […] Briefly, Balb/c mice were anesthetized with Avertin and perfused slowly through the heart for 10 to 15 minutes with approximately 15 ml of PBS containing 0.5 mg/ml of sulfo-NHS-LC-biotin (Pierce; Rockford, Ill.). Well perfused lungs or control tissues such as brain were then collected and incubated on ice for 20 minutes. The tissues were then homogenized for preparation of extracts as described further below.
For preparation of extracts, mouse or rat lungs were first minced and then homogenized with a Brinkman homogenizer (Brinkman; Wesbury, N.Y.) in a minimal volume (2.5 ml/g of tissue) of cold PBS containing 100 mM N-octyl-β-D-glucopyranoside (Calbiochem; La Jolla, Calif.) with 1 mM phenylmethylsulfonyl fluoride (PMSF), 20 μg/ml aprotinin and 1 μg/ml leupeptin (PBS/octylglucoside). The homogenized tissue was incubated on ice for 2 hours, and then centrifuged at 12,000×g for 30 minutes to remove cell debris. The pooled supernatants were cleared of any debris prior to affinity chromatogaphy.
All steps were performed at 4° C. […] The matrix contained approximately 2 mg/ml of peptide. […] The extract was applied to the column, and the flow-through re-applied over a period of 90 minutes. The column was then washed with 20 volumes of column buffer. […]

CGFECVRQCPERC [lung homing peptide]
phage binding to kidney cells relative to fd-tet (kidney cells): higher than fd-tet binding
binding of lung surface protein to peptide affinity column [1]: a 55 kDa biotinylated protein was selectively eluted; also recorded: specifically binds to a 55 kDa lung vascular surface protein
